Results as given in patent publication US7629150B2, “Transformed cell harboring DNA or RNA encoding sugar chain synthesizing agent having β1,3-N-acetylglucosaminyltransferase activity” (Kyowa Hakko Kirin Co., Ltd., priority 2000, dated 2009).

Experiments:
[1] = biological target: T1, G6sec2 (Homo sapiens, UniProt Q9BYG0); assay: β1,3-N-acetylglucosaminyltransferase activity using pyridylaminated oligosaccharides as substrates; type: biochemical; details: 37° C., 14.5 hours
T1 construct: made in house; host or cells: Sf21 insect cells infected with pVL1393-F2G6sec2-derived recombinant baculovirus
T1 sequence (Q9BYG0 39-378): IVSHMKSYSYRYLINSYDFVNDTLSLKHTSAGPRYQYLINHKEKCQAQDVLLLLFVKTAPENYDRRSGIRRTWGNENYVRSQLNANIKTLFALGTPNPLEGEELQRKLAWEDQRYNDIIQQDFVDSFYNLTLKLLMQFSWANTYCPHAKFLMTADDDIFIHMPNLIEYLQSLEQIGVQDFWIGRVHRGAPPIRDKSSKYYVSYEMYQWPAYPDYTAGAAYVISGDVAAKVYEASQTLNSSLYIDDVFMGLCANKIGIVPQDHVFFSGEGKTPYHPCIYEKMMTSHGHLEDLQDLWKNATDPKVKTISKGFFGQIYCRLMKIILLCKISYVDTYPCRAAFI
Experimental: After carrying out the reaction at 37° C. for 14.5 hours in 30 μl of an assay solution [150 mmol/l sodium cacodylate (pH 7.2), 50 mmol/l UDP-GlcNAc (manufactured by SIGMA), 0.4% Triton CF-54, 10 mmol/l MnCl2, 50 μmol/l pyridylaminated sugar chain substrate, a purified enzyme solution (G6sec2)], the product was detected by HPLC. The purified enzyme (G6sec2) was obtained according to the method shown in Example 8(6). The purified enzyme (280 μl) was prepared from 30 ml of a culture supernatant of Sf21 infected with the recombinant virus derived from pVL1393-F2G6sec2, and the assay was carried out using 5 μl thereof. As substrates, LnNT, lacto-N-tetraose (Galβ1-3GlcNAcβ1-3Galβ1-4Glc (hereinafter referred to as “LNT”), lacto-N-fucopentaose II (Galβ1-3(Fucα1-4)GlcNAcβ1-3Galβ1-4Glc; hereinafter referred to as “LNFP-II”), lacto-N-fucopentaose III (Galβ1-4(Fucα1-3)GlcNAcβ1-3Galβ1-4Glc; hereinafter referred to as “LNFP-III”), lacto-N-fucopentaose V (Galβ1-3GlcNAcβ1-3Galβ1-4(Fucα1-3)Glc; hereinafter referred to as “LNFP-V”), and lacto-N-difucohexaose II (Galβ1-3(Fucα1-4)GlcNAcβ1-3Galβ1-4(Fucα1-3)Glc; hereinafter referred to as “LNDFH-II”) (all manufactured by Oxford Glycosystems) were fluorescently-labeled with aminopyridine and used. The substrates were fluorescently-labeled according to a conventional method [Agric. Biol. Chem., 54, 2169 (1990)].
After carrying out the reaction on each substrate using an assay solution containing UDP-GlcNAc (saccharide donor) and an assay solution containing no donor and subsequently analyzing by HPLC, peaks appeared only in the assay solution containing UDP-GlcNAc was defined as products.
The assay solution after completion of the reaction was treated at 100° C. for 5 minutes and then centrifuged at 10,000×g for 5 minutes to obtain a supernatant, and a part thereof (5 μl) was subjected to HPLC.
The HPLC was carried out using TSK-gel ODS-80Ts Column (4.6×300 mm; manufactured by TOSOH) and 0.02 mol/l ammonium acetate buffer (pH 4.0) as the eluant at an elution temperature of 50° C. and a flow rate of 0.5 ml/min.
Detection and determination of products were carried out using a fluorescence spectrophotometer FP-920 (manufactured by JASCO Corporation) (excitation wavelength: 320 nm, radiation wavelength: 400 nm).

[2] = biological target: T1, G6sec2; assay: β1,3-N-acetylglucosaminyltransferase activity using unlabeled oligosaccharides as substrates (HPAE/PAD); type: biochemical; details: unlabeled oligosaccharide 10 mmol/l, 37° C., 16 hours
Experimental: The glycosyltransferase reaction was carried out as follows. The reaction was carried out at 37° C. for 16 hours in 40 μl of an assay solution [50 mmol/l MOPS (pH 7.5), 5 mmol/l UDP-GlcNAc (manufactured by SIGMA), 5 mmol/l MnCl2, 10 mmol/l sugar chain substrate, a purified enzyme solution (G6sec2)]. Next, the mixture was treated at 100° C. for 5 minutes and then centrifuged at 10,000×g for 20 minutes to obtain a supernatant, and a part thereof was analyzed using HPAE/PAD ([…]; manufactured by DIONEX). The method was specifically carried out according to a conventional method [Anal. Biochem., 189, 151-162 (1990), J. Biol. Chem., 273, 433-440 (1998)].
As a purified enzyme (G6sec2), […] of the enzyme obtained in the above (2) was used. As substrates, unlabeled oligosaccharides [lactose (Galβ1-4Glc) and LNnT] were used.
After the reaction on each substrate using an assay solution containing UDP-GlcNAc (saccharide donor) and an assay solution containing no donor, analysis was carried out using HPAE/PAD and peaks appeared only in the assay solution containing UDP-GlcNAc were defined as products. The product was identified using coincidence of its elution time with that of standard sugar chain as the index. As standard sugar chains, GlcNAcβ1-3Galβ1,4Glc and GlcNAcβ1-3Galβ1,4GlcNAcβ1-3Galβ1-4Glc were used.

Structure (SMILES): CC(=O)N[C@H]1[C@H](O[C@H]2[C@@H](O)[C@@H](CO)O[C@@H](O[C@H]3[C@H](O)[C@@H](O)C(O)O[C@@H]3CO)[C@@H]2O)O[C@H](CO)[C@@H](O[C@@H]2O[C@H](CO)[C@H](O)[C@H](O)[C@H]2O)[C@@H]1O (mixture of isomers) [LNnT, lacto-N-neotetraose]
- Relative activity (%) ([1]; pyridylaminated oligosaccharides 50 μmol/l, LNnT defined as 100%): 100%
- conversion efficiency of the substrate into the product ([1]; pyridylaminated substrate 50 μmol/l): 12.8%
- conversion efficiency into the product [2]: 0.48%
